In assay [1] the target is MTAN (Escherichia coli, UniProt P0AF12). The assay is described as follows: Enzyme inhibition assay, MTAN (slow-onset inhibition constants). It is filed as biochemical. The settings on record: for Ki: MTAN. The protocol:
(§1) Ki as shown in Tables 1 and 2 is the initial inhibition constant formed by the enzyme-inhibitor complex, and Ki* is the equilibrium dissociation constant for inhibition that is observed following a period of slow-onset, tight binding inhibition. Ki* is the biologically effective constant.
(§2) Enzyme assays were conducted to assess the effectiveness of selected compounds of the invention as inhibitors of MTAP and MTAN.
(§3) Inhibitors.—Inhibitor concentrations were determined by the UV absorbance spectrum using the published millimolar extinction coefficients for 9-dazadenine of 8.5 at 275 nm at pH 7.0.
(§4) Assays.—The direct spectrophotometric assay for the conversion of MTA into adenine was measured as the decrease in absorbance at 274 nm. At 274 nm, Δε between MTA and adenine is at a maximum and produces a spectral change of 1.6 absorbance units/cm/mM (DeWolf, W. E. Jr., Fullin, F. A., and Schramm, V. L. (1979) J. Biol. Chem. 254, 10868–10875)
Slow-Onset Inhibition and Inhibition Constants.—The kinetics for slow onset inhibition and the Ki measurement was carried out by adding a known concentration of enzyme (1–5 nM) to a reaction mixture containing a substrate concentration of 200 μM. This concentration corresponds to an OD of 0.7–1.1 at […]. The formation of product was monitored as a decrease in absorbance at 274 nm. Conditions for Ki* determination used high concentrations of substrate. Two controls, one having no inhibitor and the other no enzyme were included in the experiment. The Ki values MTAP for the various compounds were calculated by fitting in the ratio of initial rates in the presence of inhibitor to without any inhibitor versus the inhibitor concentration, for the known Km and substrate concentration into the following expression.
(§5) Where Vo′ is the rate in the presence of inhibitor • Vo rate in the absence of inhibitor • [I] inhibitor concentration • And [S] is the substrate concentration
(§6) And the Ki* was calculated by fitting to the following expression
(§7) Where Vs′ is the steady-state rate following attainment of equilibrium in the presence inhibitor, and Vs is the steady-state rate in the control having no inhibitor. Both these equations are valid for competitive type inhibition.

Assay [2] deals with T1, human MTAP (Homo sapiens, UniProt Q13126).
T1 construct: inferred from pQE32 vector and Ni-NTA purification) (N); made in house; host or cells: E. coli
T1 sequence (Q13126 1-283): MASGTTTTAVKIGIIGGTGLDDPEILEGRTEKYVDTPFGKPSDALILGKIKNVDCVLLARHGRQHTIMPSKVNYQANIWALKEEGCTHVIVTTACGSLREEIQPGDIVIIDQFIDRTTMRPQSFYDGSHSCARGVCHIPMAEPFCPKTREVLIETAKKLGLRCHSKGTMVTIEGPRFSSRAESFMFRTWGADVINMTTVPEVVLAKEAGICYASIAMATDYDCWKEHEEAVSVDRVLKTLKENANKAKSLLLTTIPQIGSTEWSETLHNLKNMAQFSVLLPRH
Description: Enzyme inhibition assay, MTAP (slow-onset inhibition constants). The assay is classed as biochemical. The settings on record: for Ki: MTAP. As to the method: as §1, §2
Enzymes.—The human MTAP protein was cloned into pQE32 expression vector and transformed into E. coli. Induction cultures containing 1 L (25 mg/L) and 50 μg/mL ampicillin were inoculated with 1 mL overnight grown starter-culture and incubated at 37° C. When the cultures reached an OD of ≈0.6 they were induced with 1.5 mM IPTG for 6 to 8 hours. Cells were harvested by centrifugation at 5000 rpm for 30 min, and subsequently resuspended in a buffer (20 mM imidazole, 300 mM NaCl, 0.2 mM phenylmethylsulfonyl fluoride (PMSF), 100 mM Tris, pH 8.0) containing a small amount of lysozyme to weaken the cell membrane. Cells were lysed with a French press. The insoluble material was removed by high-speed centrifugation. The cell extract was further clarified with 35% ammonium sulfate precipitation followed by high-speed centrifugation. The clarified cell extract was then applied to a 5 mL Ni-NTA column that had previously been equilibrated with the binding buffer. Further chromatographic steps were carried out by FPLC. The column was washed with 10 volumes of 50 mM imidazole, 300 mM NaCl, and 100 mM Tris, pH 8.0, and the protein was eluted with a buffer containing a 50–250 mM gradient of imidazole, 300 mM NaCl, 1 M Tris, pH 8.0. The purity of the protein was verified by running polyacrylamide gel followed by Coomassie staining. The protein was subsequently dialyzed in 50 mM NaCl, 2 mM dithiothreitol (DTT) and 50 mM Tris, pH 7.4, and was concentrated to 10 mg/mL. The purified protein was stored at −80° C. in 100 μL to 150 μL aliquots.
as §3, §4
This concentration corresponds to an OD of 0.7–1.1 at 274 nM. The formation of product was monitored as a decrease in absorbance at 274 nm. Conditions for Ki* determination used high concentrations of substrate. Two controls, one having no inhibitor and the other no enzyme were included in the experiment. The Ki values MTAP for the various compounds were calculated by fitting in the ratio of initial rates in the presence of inhibitor to without any inhibitor versus the inhibitor concentration, for the known Km and substrate concentration into the following expression.
as §5, §6, §7

Setting [3] is: Ki*, equilibrium dissociation constant after slow-onset, tight binding inhibition.
Setting [4] is: Ki, initial inhibition constant.
The mark [5] stands for this setting: initial inhibition constant, read-out: Ki.
Setting [6] is: equilibrium dissociation constant after slow-onset, tight binding inhibition, read-out: Ki*.

Structures can show the parent of a compound that is named as a salt. Where two headings read alike, the source gives them in different places.

MTAN, sequence (P0AF12 whole entry): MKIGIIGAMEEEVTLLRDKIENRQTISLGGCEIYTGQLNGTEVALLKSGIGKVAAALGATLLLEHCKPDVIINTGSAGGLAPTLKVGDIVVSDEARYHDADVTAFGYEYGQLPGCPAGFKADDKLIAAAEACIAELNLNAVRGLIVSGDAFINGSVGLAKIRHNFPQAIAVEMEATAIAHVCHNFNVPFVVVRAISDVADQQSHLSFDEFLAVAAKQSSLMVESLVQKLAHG

In general, Ki refers to the equilibrium dissociation constant of an inhibitor or competing ligand from its target. Turning to `Nc1ncnc2c([C@@H]3N[C@H](CSCc4ccccc4)[C@H](O)C3O)c[nH]c12` (stereo partly drawn) [5′-Benzylthio-ImmA, (1S)-1-(9-Deazaadenin-9-yl)-5-benzylthio-1,4-dideoxy-1,4-imino-D-ribitol], the inhibition constant Ki in assay [1] (setting [3]) is 0.012 ± 0.001 nM; in assay [1] (setting [4]), 0.038 ± 0.003 nM; in assay [2] (setting [5]), 12 ± 1 nM.
In the case of `COC[C@H]1N[C@@H](c2c[nH]c3c(N)ncnc23)[C@H](O)[C@@H]1O` [5′-Methoxy-ImmA, (1S)-1-(9-deazaadenin-9-yl)-1,4-dideoxy-1,4-imino-5-O-methyl-D-ribitol hydrochloride], the values for the inhibition constant Ki in assay [1] (setting [4]) and in assay [2] (setting [5]) were 10 ± 1 nM and 70 ± 5 nM, respectively.
Turning to `CCC[C@H]1N[C@@H](c2c[nH]c3c(N)ncnc23)[C@H](O)[C@@H]1O` [5′-deoxy-5′-ethyl-ImmA, (1S)-1-(9-Deazaadenin-9-yl)-1,4,5-trideoxy-5-ethyl-1,4-imino-D-ribitol], the Ki worked out at 0.038 ± 0.005 nM in assay [1] (setting [6]) and 0.121 ± 0.005 nM in assay [1] (setting [5]).
In the case of `Nc1ncnc2c([C@@H]3N[C@H](CSc4ccc(Cl)cc4)[C@H](O)C3O)c[nH]c12` (stereo partly drawn) [5′-(p-Chloro-Phenyl-thio)-ImmA, (1S)-1-(9-Deazaadenin-9-yl)-5-(4-chlorophenyl)thio-1,4-dideoxy-1,4-imino-D-ribitol], the inhibition constant (Ki) in assay [1] (setting [3]) came to 0.006 nM; in assay [1] (setting [4]) it was 0.006 ± 0.0003 nM; in assay [2] (setting [6]), 0.09 ± 0.02 nM; in assay [2] (setting [5]) it was 0.334 ± 0.036 nM.
As for `Nc1ncnc2c([C@@H]3N[C@H](CSCCF)[C@H](O)C3O)c[nH]c12` (stereo partly shown) [5′-Fluoroethylthio-ImmA], the inhibitory constant (Ki) was 0.03 ± 0.003 nM in assay [1] (setting [3]), 0.103 ± 0.011 nM in assay [1] (setting [4]), 1.5 ± 0.17 nM in assay [2] (setting [6]) and 7 ± 0.5 nM in assay [2] (setting [5]).
Turning to `Nc1ncnc2c([C@@H]3N[C@H](CO)C(O)C3O)c[nH]c12` (stereo partly shown) [Immucillin A, reference compound], the “inhibition of MTAP (in words)” value in assay [2] was “no inhibition”.
Consider `CCSC[C@H]1N[C@@H](c2c[nH]c3c(N)ncnc23)C(O)[C@H]1O` (stereo partly shown) [5′-Ethylthio-ImmA], for which the Ki stood at 0.027 ± 0.0003 nM in assay [1] (setting [3]), 0.073 ± 0.011 nM in assay [1] (setting [4]), 0.26 ± 0.015 nM in assay [2] (setting [6]) and 18 ± 2 nM in assay [2] (setting [5]).
As for `C[C@H]1N[C@@H](c2c[nH]c3c(N)ncnc23)[C@H](O)[C@@H]1O` [5′-deoxy-ImmA, (1S)-1-(9-deazaadenin-9-yl)-1,4,5-trideoxy-1,4-imino-D-ribitol hydrochloride], the Ki in assay [1] (setting [4]) came out at 13 ± 1 nM; in assay [2] (setting [5]), 220 ± 14 nM.
`Nc1ncnc2c([C@@H]3N[C@H](CSc4ccc(F)cc4)[C@H](O)C3O)c[nH]c12` (stereo partly shown) [5′-(p-Fluoro-phenyl-thio)-ImmA]: the figures for the inhibitory constant (Ki) in assay [1] (setting [3]), in assay [1] (setting [4]) and in assay [2] (setting [5]) were 0.02 ± 0.004 nM, 0.082 ± 0.007 nM and 3 ± 0.2 nM, respectively.
As for `Nc1ncnc2c([C@@H]3N[C@H](CSc4ccccc4)[C@H](O)C3O)c[nH]c12` (stereo partly shown), the Ki stood at 0.032 ± 0.002 nM in assay [1] (setting [6]), 0.046 ± 0.003 nM in assay [1] (setting [5]), 0.082 ± 0.009 nM in assay [2] (setting [6]) and 0.89 ± 0.12 nM in assay [2] (setting [5]).
Regarding `Nc1ncnc2c([C@@H]3N[C@H](CSc4cccc5ccccc45)[C@H](O)C3O)c[nH]c12` (stereo partly shown) [5′-Napthylthio-ImmA], the Ki in assay [1] (setting [4]) turned out to be 0.75 ± 0.033 nM; in assay [2] (setting [5]), 52 ± 5 nM.
For `Cc1cccc(SC[C@H]2N[C@@H](c3c[nH]c4c(N)ncnc34)C(O)[C@H]2O)c1` (stereo partly shown) [5′-(m-tolylthio)-ImmA], the Ki in assay [1] (setting [3]) stood at 0.009 ± 0.001 nM; in assay [1] (setting [4]), 0.015 ± 0.0006 nM; in assay [2] (setting [6]), 0.146 ± 0.048 nM; in assay [2] (setting [5]) it was 0.602 ± 0.032 nM.
For the molecule `CSC[C@H]1N[C@@H](c2n[nH]c3c(N)ncnc23)C(O)[C@H]1O` (stereo partly drawn) [5′-methylthio-8-aza-ImmA, (1S)-1-(7-Amino-1H-pyrazolo[4,3-d]pyrimidin-3-yl)-1,4-dideoxy-1,4-imino-5-methylthio-D-ribitol], the inhibitory constant (Ki) in assay [1] (setting [3]) is 0.026 ± 0.0003 nM; in assay [1] (setting [4]) it was 0.055 ± 0.003 nM; in assay [2] (setting [6]) it was 0.76 ± 0.14 nM; in assay [2] (setting [5]), 7 ± 1 nM.
Regarding `Nc1ncnc2c([C@@H]3N[C@H](CSCCO)[C@H](O)C3O)c[nH]c12` (stereo partly shown) [5′-Hydroxyethylthio-ImmA], the Ki in assay [1] (setting [4]) is 0.407 ± 0.016 nM; in assay [2] (setting [5]) it was 22 ± 2 nM.
For `CSC[C@H]1N[C@@H](c2c[nH]c3c(=O)[nH]cnc23)C(O)C1O` (stereo partly shown) [methylthio-ImmH, reference compound], the “inhibition of MTAN (in words)” value in assay [1] was “no inhibition”.
Turning to `Cc1ccc(SC[C@H]2N[C@@H](c3c[nH]c4c(N)ncnc34)C(O)[C@H]2O)cc1` (stereo partly shown) [5′-(p-tolylthio)-ImmA], the inhibition constant (Ki) was determined as 0.008 ± 0.001 nM in assay [1] (setting [3]), 0.018 ± 0.001 nM in assay [1] (setting [4]), 0.252 ± 0.023 nM in assay [2] (setting [6]) and 1.6 ± 0.2 nM in assay [2] (setting [5]).
Take `Nc1ncnc2c([C@@H]3N[C@H](CSc4cccc(Cl)c4)[C@H](O)C3O)c[nH]c12` (stereo partly drawn) [5′-(m-Chloro-Phenyl-thio)-ImmA, (1S)-1-(9-Deazaadenin-9-yl)-5-(3-chlorophenyl)thio-1,4-dideoxy-1,4-imino-D-ribitol]: the Ki was determined as 0.02 ± 0.002 nM in assay [1] (setting [3]), 0.044 ± 0.004 nM in assay [1] (setting [4]) and 4 ± 0.4 nM in assay [2] (setting [5]).
